Laboratory results from US20160355465A1, “NOVEL MODIFIED CURCUMINS AND THEIR USES” (THE RESEARCH FOUNDATION OF STATE UNIVERSITY OF NEW YORK, priority 2011, published 2016).

How the values were obtained:
peritoneal macrophages = test: macrophage accumulation in peritoneal exudates of diabetic rats; format: in vivo, rat; conditions: oral 30 mg/kg daily, 21 days
Protocol: Adult male Sprague-Dawley rats (body weight 300-350 g) were injected through the tail vein with either 0.9% saline (non-diabetic control) or with the same solution containing streptozotocin (70 mg/kg body weight) to induce diabetes. Non-diabetic rats served as normal controls. The diabetic rats were distributed into 2 experimental groups (3 rats per group). Urine glucose levels were measured weekly with Tes-Tape (Eli Lilly Inc.). One group of rats was treated by oral gavage of Compound 4 (30 mg/kg body weight) daily for 21 days; the Compound 4 was suspended in 2% carboxymethyl cellulose and polytron/homogenized. The normal & diabetic vehicle-treated (control) groups were oral gavaged with vehicle alone daily.
Rat peritoneal macrophages were harvested with 10 ml RPMI 4 days after intraperitoneal injection of 10 ml of thioglycolate (3% wt/vol). Macrophages were then purified by density gradient centrifugation (lymphoprep) and cell numbers were counted in a hemocytometer. The cells were then tested in a cell migration assay (Cell BioLabs, Inc, CytoSelect 96-well with 5 um fluorometric format) using conditioned medium containing inflammatory mediators including MCP-1 from LPS-macrophages as a chemoattractant. The macrophages from different groups of rats were also plated onto 24 well-plates with and without p.g.LPS challenge for 24 hours in 37° C., 5% CO2. […]

MMP-14 = MMP-14 (Homo sapiens, UniProt P50281); test: fluorimetric assay of MMP activity; format: biochemical; conditions: synthetic fluorescent peptide substrate Mca-Lys-Pro-Leu-Gly-Leu-Dpa-Ala-Arg-NH2
mosquito bites = mosquito bites on the arms of a human subject, topical; format: in vivo; conditions: Example 9
Excerpt: Mosquitoes are presented with and allowed to bite the left and right arms of a human subject.

[1] = system: MMP-9 (92 kDa gelatinase); test: gelatin zymography of skin wound extracts; format: in vivo, rat; conditions: diabetic rats, all three treatments (1%, 3% topical, oral 30 mg/kg), day 7
Protocol: (§1) The following five experimental groups (n=3 rats per group) were established: Non-diabetic control rats (NDC) treated by daily application of white petrolatum jelly (“vehicle”) for 7 days, diabetic rats (D group) treated daily with vehicle alone; diabetics treated by daily topical application of either a 1% (D+1%) or a 3% (D+3%) suspension of Compound 4 in the vehicle; and diabetics treated systemically by daily oral intubation of a 1 ml suspension of Compound 4 (in carboxymethylcellulose) at a dose of 30 mg/kg over the 7-day treatment protocol (D+30 mg/kg). At the end of this time period, the circular wounds were clinically assessed by measuring diameter of the wound in millimeters, blood samples were collected, the rats were sacrificed, and skin samples collected for histological/histochemical, and biochemical assessment as described below. • 1) On day 7 after inducing wound healing, the animals were anesthetized and blood samples collected for blood glucose (one Touch Ultra Glucometer; Johnson & Johnson, New Brunswick, N.J.) and Hemoglobin A1c (A1c Now+; Bayer Health Care, Sunnyvale, Calif.) measurements. • 2) Photographs were taken for clinical observations to assess wound closure. […]

[2] = system: MMP-2 (72 kDa gelatinase); test: gelatin zymography of skin wound extracts; format: in vivo, rat; conditions: diabetic rats, 1% topical, day 7
Protocol: as §1

MMP-2 = biological target: T1, MMP-2 (Homo sapiens, UniProt P08253); test: fluorimetric assay of MMP activity; format: biochemical; conditions: synthetic fluorescent peptide substrate Mca-Lys-Pro-Leu-Gly-Leu-Dpa-Ala-Arg-NH2; read-out: IC50 MMP-2
T1 sequence (P08253 110-660): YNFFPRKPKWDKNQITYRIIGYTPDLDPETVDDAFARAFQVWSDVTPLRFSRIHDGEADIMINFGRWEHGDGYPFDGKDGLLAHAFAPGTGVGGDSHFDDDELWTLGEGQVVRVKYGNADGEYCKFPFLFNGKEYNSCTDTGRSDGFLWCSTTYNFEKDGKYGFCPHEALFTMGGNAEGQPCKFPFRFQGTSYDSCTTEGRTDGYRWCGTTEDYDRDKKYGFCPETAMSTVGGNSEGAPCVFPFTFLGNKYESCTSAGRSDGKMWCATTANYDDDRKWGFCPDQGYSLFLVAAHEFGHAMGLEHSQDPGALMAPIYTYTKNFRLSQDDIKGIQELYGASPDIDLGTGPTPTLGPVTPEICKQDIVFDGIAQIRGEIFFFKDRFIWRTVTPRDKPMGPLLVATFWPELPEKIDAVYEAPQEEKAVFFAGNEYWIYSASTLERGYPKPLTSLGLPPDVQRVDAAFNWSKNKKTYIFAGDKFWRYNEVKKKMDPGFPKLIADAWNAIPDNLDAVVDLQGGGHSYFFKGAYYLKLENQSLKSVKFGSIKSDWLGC

O=C(/C=C/c1ccc(O)cc1)C(C(=O)/C=C/c1ccc(O)cc1)C(=O)Nc1ccccc1 [Compound 4, 1,7-Bis(4-hydroxyphenyl)-4-N-phenylaminocarbonylhepta-1E, 6E-dien-3,5-dione]
macrophage accumulation in peritoneal exudates (peritoneal macrophages): decreased pathologically excessive macrophage accumulation | IC50 (MMP-14): 15.3 ± 3.1 µM | itching and healing of mosquito bites compared with Compound 2 (mosquito bites): stop itching sooner and heal quicker | level of pro-MMP-9 and activated MMP-9 in skin wounds [1]: attenuated this diabetic effect | MMP-2 in skin wounds [2]: does not suppress, and perhaps even enhances | IC50 (MMP-2): 4.8 ± 0.5 µM
